According to ChEMBL document CHEMBL1781966, “Lead optimization of 4-imidazolylflavans: new promising aromatase inhibitors” (Eur J Med Chem, 2011):

Target: T1, Aromatase (Homo sapiens, UniProt P11511)
T1 sequence (P11511 whole entry): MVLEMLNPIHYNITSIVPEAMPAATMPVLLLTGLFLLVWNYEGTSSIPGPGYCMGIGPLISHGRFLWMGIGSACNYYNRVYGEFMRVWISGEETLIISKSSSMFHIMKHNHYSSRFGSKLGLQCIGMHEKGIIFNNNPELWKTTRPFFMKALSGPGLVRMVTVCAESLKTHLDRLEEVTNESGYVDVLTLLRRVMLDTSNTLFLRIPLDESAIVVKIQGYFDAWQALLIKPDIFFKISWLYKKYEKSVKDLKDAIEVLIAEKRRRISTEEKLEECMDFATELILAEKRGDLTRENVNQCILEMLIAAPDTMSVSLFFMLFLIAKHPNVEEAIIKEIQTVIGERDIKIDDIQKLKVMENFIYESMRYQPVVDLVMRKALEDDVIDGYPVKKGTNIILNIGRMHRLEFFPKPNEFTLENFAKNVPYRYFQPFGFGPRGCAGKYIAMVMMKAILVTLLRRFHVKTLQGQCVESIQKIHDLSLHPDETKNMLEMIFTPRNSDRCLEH
Assay: Inhibition of aromatase in human placental microsomes assessed as inhibition of aromatization of [1,2,6,7-3H] androstenedione by flow scintillation analysis
Design: species or system Placenta

Compound	IC50 [nM]
Oc1ccc(C2CC(n3ccnc3)c3ccc4ccccc4c3O2)cc1 (mixture of isomers)	32
c1ccc(C2CC(n3ccnc3)c3ccc4ccccc4c3O2)cc1 (trans isomer)	36

The remaining lines, values ahead:

IC50 [nM]	Compound
534	N#Cc1ccc(C2CC(n3ccnc3)c3ccc4ccccc4c3O2)cc1 (cis isomer)
78	N#Cc1ccc(C2CC(n3ccnc3)c3ccc4ccccc4c3O2)cc1 (mixture of isomers)
34	N#Cc1ccc(C2CC(n3ccnc3)c3ccc4ccccc4c3O2)cc1 (stereo in doubt)
